Columns and labels:
[1] = In vivo PK experiment: oral SQV with or without oral RESV; design: species or system rat; conditions: rats
[2] = clinical practice; cited from earlier work
[3] = low solubility and high permeability; cited from earlier work

Effect of coadministration on Cmax of SQV ([1]; RESV 20 mg/kg oral with SQV 30 mg/kg oral, P>0.05) | Time of first peak in plasma levels ([1]; SQV 30 mg/kg oral, RESV (20 mg/kg) treatment group) | Time of second peak in plasma levels ([1]; SQV 30 mg/kg oral, both groups (with or without RESV 20 mg/kg)) | Time of first peak in plasma levels ([1]; SQV 30 mg/kg oral, control group) | SMILES | Coefficient of variation (CV) of oral bioavailability [2] | Oral bioavailability [2] | Biopharmaceutics Classification System class [3]
not significantly affected |  |  |  | Oc1ccc(/C=C/c2cc(O)cc(O)c2)cc1 [RESV, resveratrol] |  |  | 
 | ~0.25 h | ~ 4 h | ~ 0.5 h | CC(C)(C)NC(=O)[C@@H]1C[C@@H]2CCCC[C@@H]2CN1C[C@@H](O)[C@H](Cc1ccccc1)NC(=O)[C@H](CC(N)=O)NC(=O)c1ccc2ccccc2n1 [SQV, saquinavir] | > 100% | ~ 4% | class II

Source: paper PMC5117956 (Drug Design, Development and Therapy, 2016)
